# ChEMBL document CHEMBL3351449, “Inhibition of FAAH, TRPV1, and COX2 by NSAID-serotonin conjugates” (Bioorg Med Chem Lett, 2014)
# The source made the active and inactive calls. The rule behind the calls is not given here.
# How the values were obtained:
# [1] = biological target: T1, Fatty-acid amide hydrolase 1 (Homo sapiens) (UniProt O00519); assay: Inhibition of human recombinant FAAH using AMC arachidonoyl amide as substrate assessed as residual activity at 10 uM by fluorescence assay
# T1 sequence (whole entry): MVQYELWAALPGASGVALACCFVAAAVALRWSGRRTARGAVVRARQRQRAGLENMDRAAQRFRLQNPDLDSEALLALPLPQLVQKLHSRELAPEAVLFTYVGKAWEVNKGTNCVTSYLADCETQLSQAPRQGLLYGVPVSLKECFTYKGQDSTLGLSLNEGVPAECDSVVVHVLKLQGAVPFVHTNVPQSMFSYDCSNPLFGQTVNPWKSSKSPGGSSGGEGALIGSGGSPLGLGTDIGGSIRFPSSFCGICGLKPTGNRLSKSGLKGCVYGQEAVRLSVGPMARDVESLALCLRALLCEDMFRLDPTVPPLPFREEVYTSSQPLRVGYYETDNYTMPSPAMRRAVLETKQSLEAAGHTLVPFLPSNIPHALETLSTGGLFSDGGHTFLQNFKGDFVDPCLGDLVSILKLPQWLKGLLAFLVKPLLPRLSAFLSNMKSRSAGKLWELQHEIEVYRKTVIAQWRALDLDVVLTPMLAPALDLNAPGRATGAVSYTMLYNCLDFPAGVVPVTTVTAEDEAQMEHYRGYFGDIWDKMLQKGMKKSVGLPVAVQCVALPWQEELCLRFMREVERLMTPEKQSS
# [2] = biological target: T2, Prostaglandin G/H synthase 2 (Homo sapiens) (UniProt P35354); assay: Inhibition of human recombinant COX2 assessed as inhibition of ADHP to fluorescent resorufin conversion measured as residual activity at 10 uM by fluorescence assay
# T2 sequence (whole entry): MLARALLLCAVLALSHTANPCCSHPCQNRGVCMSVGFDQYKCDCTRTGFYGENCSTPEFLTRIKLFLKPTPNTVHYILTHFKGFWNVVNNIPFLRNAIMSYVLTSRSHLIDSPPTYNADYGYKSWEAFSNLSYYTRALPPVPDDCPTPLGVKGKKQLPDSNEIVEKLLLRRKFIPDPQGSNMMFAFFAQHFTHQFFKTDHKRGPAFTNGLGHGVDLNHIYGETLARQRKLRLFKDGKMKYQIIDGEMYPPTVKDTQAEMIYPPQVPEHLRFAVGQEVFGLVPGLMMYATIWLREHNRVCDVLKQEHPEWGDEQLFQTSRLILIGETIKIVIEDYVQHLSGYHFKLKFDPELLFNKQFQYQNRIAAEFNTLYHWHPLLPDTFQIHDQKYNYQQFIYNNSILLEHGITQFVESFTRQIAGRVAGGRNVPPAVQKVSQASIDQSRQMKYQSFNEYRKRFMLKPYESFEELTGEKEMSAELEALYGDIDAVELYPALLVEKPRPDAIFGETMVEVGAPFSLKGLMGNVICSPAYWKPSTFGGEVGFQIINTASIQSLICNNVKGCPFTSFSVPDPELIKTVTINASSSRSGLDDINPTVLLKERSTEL
# [3] = biological target: T3, Transient receptor potential cation channel subfamily V member 1 (Homo sapiens, UniProt Q8NER1); assay: Inhibition of human TRPV1 overexpressed in BEAS-2B cells assessed as calcium flux after 30 mins by Fluo-4 AM fluorescence assay; type: cell-based
# [4] = biological target: T4, Prostaglandin G/H synthase 2 (Homo sapiens, UniProt P35354); assay: Inhibition of human recombinant COX2 assessed as inhibition of ADHP to fluorescent resorufin conversion by fluorescence assay
# T4 sequence (P35354 whole entry): T2 sequence (whole entry)
# [5] = biological target: T5, Fatty-acid amide hydrolase 1 (Homo sapiens, UniProt O00519); assay: Inhibition of human recombinant FAAH using AMC arachidonoyl amide as substrate by fluorescence assay
# T5 sequence (O00519 whole entry): T1 sequence (whole entry)
# [6] = biological target: T3, Transient receptor potential cation channel subfamily V member 1; assay: Inhibition of human TRPV1 overexpressed in BEAS-2B cells assessed as residual activity at 250 uM after 30 mins by Fluo-4 AM fluorescence assay; type: cell-based
# [7] = biological target: T3, Transient receptor potential cation channel subfamily V member 1; assay: Inhibition of human TRPV1 overexpressed in BEAS-2B cells assessed as residual activity at 50 uM after 30 mins by Fluo-4 AM fluorescence assay; type: cell-based
# [8] = biological target: T1, Fatty-acid amide hydrolase 1 (Homo sapiens); assay: Inhibition of human recombinant FAAH using AMC arachidonoyl amide as substrate assessed as residual activity at 50 uM by fluorescence assay
# [9] = biological target: T3, Transient receptor potential cation channel subfamily V member 1; assay: Stimulation of human TRPV1 overexpressed in BEAS-2B cells at >10 uM after 30 mins by Fluo-4 AM fluorescence assay; type: cell-based
# [10] = biological target: T3, Transient receptor potential cation channel subfamily V member 1; assay: Inhibition of human TRPV1 overexpressed in BEAS-2B cells at 10 uM after 30 mins by Fluo-4 AM fluorescence assay; type: cell-based
# T3 sequence (Q8NER1 whole entry): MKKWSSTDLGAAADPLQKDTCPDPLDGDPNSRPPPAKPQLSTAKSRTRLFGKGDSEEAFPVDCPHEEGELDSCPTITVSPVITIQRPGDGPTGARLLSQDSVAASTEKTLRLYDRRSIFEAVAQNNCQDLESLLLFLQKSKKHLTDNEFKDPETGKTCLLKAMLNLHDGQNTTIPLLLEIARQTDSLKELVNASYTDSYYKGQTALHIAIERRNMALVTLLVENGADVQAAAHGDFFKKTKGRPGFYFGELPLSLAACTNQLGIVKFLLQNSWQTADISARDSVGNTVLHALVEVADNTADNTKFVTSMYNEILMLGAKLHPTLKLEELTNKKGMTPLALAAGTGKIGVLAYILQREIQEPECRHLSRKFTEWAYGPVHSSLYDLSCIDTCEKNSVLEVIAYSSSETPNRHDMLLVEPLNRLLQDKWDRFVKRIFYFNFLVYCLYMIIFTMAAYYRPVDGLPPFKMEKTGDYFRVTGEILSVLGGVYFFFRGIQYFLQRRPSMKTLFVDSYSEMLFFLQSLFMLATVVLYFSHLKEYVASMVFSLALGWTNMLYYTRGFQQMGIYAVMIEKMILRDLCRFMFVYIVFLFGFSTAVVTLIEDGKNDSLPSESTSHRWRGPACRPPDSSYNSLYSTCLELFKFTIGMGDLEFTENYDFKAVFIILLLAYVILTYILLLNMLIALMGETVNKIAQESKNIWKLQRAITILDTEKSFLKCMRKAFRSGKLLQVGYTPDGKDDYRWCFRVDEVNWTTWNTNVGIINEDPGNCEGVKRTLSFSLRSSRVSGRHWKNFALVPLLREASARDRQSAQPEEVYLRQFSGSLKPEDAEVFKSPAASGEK
smiles,measurement,setting,value
CC(=O)Oc1ccccc1C(=O)NCCc1c[nH]c2ccc(O)cc12,Activity,[1],99%
same,Activity,[2],60%
same,IC50,[3],203 µM
CC(C(=O)NCCc1c[nH]c2ccc(O)cc12)c1ccc(-c2ccccc2)c(F)c1 (stereo unspecified),IC50,[4],8 µM
same,Activity,[1],85%
same,Activity,[2],38%
same,IC50,[5],15 µM
same,IC50,[3],9 µM
CC(C(=O)O)c1cccc(Oc2ccccc2)c1 (stereo unspecified),Activity,[6],121%
same,Activity,[7],104%
CC(C(=O)O)c1ccc(-c2ccccc2)c(F)c1 (stereo unspecified),Activity,[6],108%
same,Activity,[7],103%
O=C(O)Cc1ccccc1Nc1c(Cl)cccc1Cl,Activity,[6],49%
same,Activity,[7],61%
O=C(O)c1ccccc1Nc1cccc(C(F)(F)F)c1,Activity,[6],36%
same,Activity,[7],66%
O=C(c1ccccc1)c1ccc2n1CCC2C(=O)O (stereo unspecified),Activity,[6],110%
same,Activity,[7],96%
COc1ccc2cc([C@H](C)C(=O)NCCc3c[nH]c4ccc(O)cc34)ccc2c1,IC50,[4],18 µM
same,Activity,[2],48%
same,Activity,[8],73%
same,IC50,[3],13 µM
CC(C)Cc1ccc(C(C)C(=O)O)cc1 (stereo unspecified),Activity,[6],112%
same,Activity,[7],103%
O=C(c1ccccc1)c1ccc2n1CCC2C(=O)NCCc1c[nH]c2ccc(O)cc12 (stereo unspecified),Activity,[1],98%
same,Activity,[2],43%
same,IC50,[3],70 µM
CC(C)Cc1ccc(C(C)C(=O)NCCc2c[nH]c3ccc(O)cc23)cc1 (stereo unspecified),IC50,[4],10 µM
same,Activity,[1],75%
same,Activity,[2],42%
same,IC50,[5],5 µM
same,IC50,[3],6 µM
CC(=O)Oc1ccccc1C(=O)O,Activity,[6],91%
same,Activity,[7],84%
O=C(NCCc1c[nH]c2ccc(O)cc12)c1ccccc1O,Activity,[1],101%
same,Activity,[2],51%
same,IC50,[3],70 µM
COc1ccc2c(c1)c(CC(=O)O)c(C)n2C(=O)c1ccc(Cl)cc1,Activity,[6],82%
same,Activity,[7],98%
CC(C(=O)NCCc1c[nH]c2ccc(O)cc12)c1cccc(Oc2ccccc2)c1 (stereo unspecified),IC50,[4],7 µM
same,Activity,[2],49%
same,Activity,[8],105%
same,IC50,[3],8 µM
COc1ccc2c(c1)c(CC(=O)NCCc1c[nH]c3ccc(O)cc13)c(C)n2C(=O)c1ccc(Cl)cc1,Activity,[1],94%
same,Activity,[2],7%
same,IC50,[3],48 µM
CC(C(=O)NCCc1c[nH]c2ccc(O)cc12)c1cccc(C(=O)c2ccccc2)c1 (stereo unspecified),Activity,[1],88%
same,Activity,[2],51%
same,IC50,[3],45 µM
CCCCC/C=C\C/C=C\C/C=C\C/C=C\CCCC(=O)NCCc1c[nH]c2ccc(O)cc12,IC50,[4],5 µM
same,Activity,[1],78%
same,Activity,[2],66%
same,IC50,[5],16 µM
same,IC50,[3],10 µM
O=C(Cc1ccccc1Nc1c(Cl)cccc1Cl)NCCc1c[nH]c2ccc(O)cc12,Activity,[1],98%
same,Activity,[2],43%
same,IC50,[3],19 µM
COc1ccc2cc([C@H](C)C(=O)O)ccc2c1,Activity,[6],109%
same,Activity,[7],107%
CC(C(=O)O)c1cccc(C(=O)c2ccccc2)c1 (stereo unspecified),Activity,[6],108%
same,Activity,[7],103%
O=C(NCCc1c[nH]c2ccc(O)cc12)c1ccccc1Nc1cccc(C(F)(F)F)c1,Activity,[9],Active
same,inhibition,[10],40%
same,Activity,[1],107%
same,Activity,[2],38%
same,IC50,[3],10 µM
